The text below walks through data of PubChem BioAssay (NCI).

Common to all, as to assay: NCI tumour cell line growth inhibition, 48 h
In assay [1] the test system is DLD-1 colon.
Assay [2] deals with DMS 114 small cell lung.
For assay [3], the system named is HOP-18 NSCLC.
Assay [4] concerns M19-MEL melanoma.
Assay [5] deals with RXF-631 renal.
The test system of assay [6] is SNB-78 CNS.
Assay [7] deals with P388 leukemia.
The test system of assay [8] is P388/ADR leukemia.
Assay [9] deals with SN12K1 renal.
The subject of assay [10] is T-47D breast.
The subject of assay [11] is MDA-N.

“And” between values parts separate entries of the source, which are not always exact repeats. Equal values may be shown once.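 1) Cells in 96-well plates. 2) Compound, 48 h, 5 concentrations. 3) Linear interpolation between surrounding doses. 4) Unreached endpoint = highest concentration. Abbreviation: GI50, concentration required for 50% inhibition of growth. Definition used: TGI = concentration required for complete inhibition of growth.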

Regarding `O=C(/C=C/c1ccc(Cl)c(Cl)c1)c1ccc2ccccc2c1`, the TGI in assay [1], in assay [2], in assay [3], in assay [4], in [5] and in assay [6] was above 100 µM throughout.

As for `Cn1c(O)c(C(=O)NC2CCCCC2)c(=O)n(C)c1=S`, the TGI in assay [1] came to 24 µM; in assay [3], 9.63 µM; in assay [5], 20.1 µM.

Turning to `COc1cc(Cc2nccc3cc(OC)c(OC)cc23)c(C(C)=O)cc1OC`, the GI50 in assay [1] is 118 µM; in [2], 3.02 µM; in [3] it was 115 µM; in [4], above 750 µM. The TGI in assay [1] was 169 µM and 351 µM; in [2], 300 µM and 164 µM; in assay [3], > 300 µM and 252 µM; in assay [4] it was 223 µM and > 750 µM; in assay [7] it was 119 µM; in assay [8] it was 30 µM. Besides, the TGI in [5] was above 750 µM; in assay [9] it was 300 µM; in assay [6], 214 µM; in [10], 25.1 µM.

As to `CC1=CC(C)(C)N=C2SC(c3ccc(N)cc3)=NN12`, the TGI in [1] was above 68.9 µM; in assay [2] it was above 100 µM; in assay [3], above 100 µM; in assay [4] it was above 100 µM; in assay [5] it was above 100 µM; in [6], above 100 µM.

With `c1ccc(C2N3CCCCC3[C@@H]3c4[nH]c5ccccc5c4CCN23)nc1` (some centres undefined), the TGI in [1] was above 100 µM; in assay [2], 96.3 µM; in [3], above 100 µM; in assay [4] it was above 100 µM; in assay [5], above 100 µM; in [6] it was above 100 µM.

For the compound `COC(=O)C12CC3CC(CC(C(=O)O)(C3)C1)C2`, the TGI in assay [3], in assay [4], in [5] and in [6] was above 100 µM in each case.

For `CN(C)CCC1(C2=CCCC2)CC/C(=C\c2ccc(Cl)cc2)C1=O` (centres undefined), the TGI in assay [1] amounted to 20.6 µM; in assay [2], 21.8 µM; in [3] it was 24.8 µM; in assay [4], 13.3 µM; in [5], 25.4 µM; in assay [6], 26.9 µM.

For the compound `CCOC(=O)/C(C)=C(/O)C(=O)OCC`, the TGI in assay [1], in assay [2], in assay [3], in assay [5] and in assay [6] was above 100 µM each time.

In the case of `O=C(CC(=O)n1nc(-c2ccccc2)c(N=Nc2ccc(Cl)cc2)c1-c1ccccc1)Nc1ccc(Cl)cc1`, the TGI in assay [1] is 44.7 µM; in [2], above 56.9 µM; in [3] it was above 100 µM; in assay [4], above 76.2 µM; in assay [5], above 100 µM; in assay [6], above 100 µM.

Regarding `CCOC(=O)CC(C)C1(C(=O)OCC)CCCCC1=O` (centres undefined), the TGI is above 100 µM in assay [1]; 39.4 µM in assay [2]; above 100 µM in [3]; above 100 µM in assay [4]; above 100 µM in assay [5]; above 100 µM in [6].

Consider `CC(=O)O[C@H]1CCC2[C@@H]3CC[C@]4(C)CC(=O)C=C[C@]4(C)C3CC[C@@]21C` (some centres undefined), for which the TGI in assay [1] was 56.9 µM; in [2], 24.2 µM; in assay [3], above 53.7 µM; in [4], 34.7 µM; in assay [11], 74.7 µM; in assay [5], above 100 µM. For the same compound, the TGI in [6] was found to be 22.3 µM.

Take `CCCCCCCCCCCCCCCC(=O)OCC(C[As](=O)(O)O)OC(=O)CCCCCCCCCCCCCCC` (centres undefined): the TGI in assay [1], in assay [2], in [3], in [4], in assay [11] and in assay [5] was above 100 µM each time. The TGI was 80.8 µM in [6] and above 100 µM in [10].

Take `COc1ccc(CN2CC(C)(C)C2=O)c(OC)c1`: the TGI in assay [2], in assay [3], in assay [4], in assay [5] and in assay [6] was above 100 µM in each case.

With `O=C(Nc1cc(Cl)c(Cl)cc1Cl)C(=O)C1C(=O)NC(=S)NC1=O`, the TGI in [1], in assay [2], in assay [3], in assay [4], in assay [5] and in assay [6] was above 100 µM each time.

Regarding `CCOC(=O)N[C@@H]1C(CC(=O)OC)O[C@H]2OC(C)(C)O[C@H]21` (some centres undefined), the TGI in [1], in [2], in assay [3], in assay [4], in [5] and in assay [6] was above 100 µM in each case.
